Test results: PubChem BioAssay AID449750 (Broad Institute, 2010)
The source made the active and inactive calls. How the calls were made is not given here.

Assay: non-covalent RecA intein splicing inhibitors, dose response, biochemical, cell-free, fluorescence, secondary screen (AID 449750)

SMILES	AC50
CCOC(=O)CC1=NN(c2ccccc2)C(=O)/C1=C\c1ccc(OC)cc1OC	2.34 µM
Cc1[nH]n(-c2ccccc2)c(=O)c1C(c1ccc([N+](=O)[O-])cc1)c1c(C)[nH]n(-c2ccccc2)c1=O	3.88 µM
COc1cccc(-n2nc(C#N)c(Cl)cc2=O)c1	> 38 µM (inactive)
CC(C)CNC(=O)c1c(N)n(Cc2ccc3c(c2)OCO3)c2nc3ccccc3nc12	5.59 µM
COc1cc(C2C(C#N)=C(N)Oc3n[nH]c(C)c32)cc2c1OCO2 (stereo not drawn)	8.43 µM
Cc1cc(C(=O)CCl)c(C)n1CCc1ccccc1	14.2 µM
CC(=O)C1=C(c2ccc(Br)cc2)C(=O)c2ccccc2C1=O	7.18 µM
CN1N=C(C(C)(C)C)CC1=O	> 38 µM (inactive)
CCCCOc1ccc(C(=O)C(CN2CCOCC2)c2ccccc2)cc1 (stereo not drawn)	7.35 µM
CCc1nnc(NC(=O)c2nc(S(=O)(=O)Cc3ccc(C)cc3)ncc2Cl)s1	> 38 µM (inactive)
CC(C)c1[nH]nc2c1C(Cc1ccccc1)C(C#N)=C(N)O2 (stereo not drawn)	> 38 µM (inactive)
CCCCCOP(=O)(OCCCCC)C1(NS(=O)(=O)c2ccccc2)C=CC(=O)c2ccccc21 (stereo not drawn)	6.5 µM
Cc1ccc(C)c(-c2ccc(=O)n(Cc3cccc(Br)c3)n2)c1	16.7 µM
O=C(CSc1ncnc2c1nnn2Cc1ccccc1F)N1CCN(c2ccccc2)CC1	> 38 µM (inactive)
CCOc1ccc(S(=O)(=O)NCc2cccnc2)cc1C	> 38 µM (inactive)
COc1cc(C(=O)NCC(=O)N/N=C/c2cccc(OC(=O)c3ccco3)c2)cc(OC)c1OC	> 38 µM (inactive)
O=C(Cc1cc(=O)[nH][nH]1)N/N=C/c1c(F)cccc1Cl	30.7 µM
O=C(Nc1ccccc1N(C(=O)c1ccco1)S(=O)(=O)c1cccs1)c1ccco1	23.1 µM
COc1ccc(NC(=O)/C(C#N)=C/c2ncc([N+](=O)[O-])n2C)c(OC)c1	> 38 µM (inactive)
Cc1cccc(CS(=O)(=O)c2nnc([C@H](Cc3ccccc3)NC(=O)OC(C)(C)C)o2)c1	> 38 µM (inactive)
CCCCNC1C(CC)C(CCC)C(C#N)(C#N)C1(C#N)C#N (stereo not drawn)	> 38 µM (inactive)
C=CCNC1=C(Cl)C(=O)c2ccccc2C1=O	18.4 µM

SMILES	AC50
COc1cc(NC(C)CCCN)c2ncccc2c1 (stereo not drawn)	12.3 µM
CC1=C(C)/C(=N/OC(=O)c2cccc([N+](=O)[O-])c2)C=CC1=O	> 38 µM (inactive)
O=C1C(Nc2cccc(O)c2)=C(N2CCCCC2)C(=O)c2ccccc21	2.93 µM
CN(N)C(=S)Nc1ccc(Cl)cc1	> 38 µM (inactive)
O=C(O)CSc1c2c(nc3cc(C(=O)Nc4cccc(C(F)(F)F)c4)ccc13)CCCC2	21.7 µM
O=C1/C(=C\c2cc([N+](=O)[O-])ccc2O)SC(=S)N1Cc1ccc(Cl)cc1	13.8 µM
Nc1nc(-c2ccco2)nn1C(=O)c1ccc(Cl)cc1	> 38 µM (inactive)
Cc1ccc(C[n+]2c(-c3ccc(C)cc3)cc(-c3ccc(C)cc3)cc2-c2ccc(C)cc2)cc1	6.62 µM
CCOC(=O)C1Nc2c(F)cc(C)cc2C2c3ccccc3CC12 (stereo not drawn)	33.7 µM
Cn1c(SCC(=O)NCC2CCCO2)ncc(C(=O)Nc2ccc(F)cc2)c1=O (stereo not drawn)	7.58 µM
O=C(Oc1ccc(C(=S)N2CCOCC2)cc1)c1ccc([N+](=O)[O-])cc1[N+](=O)[O-]	> 38 µM (inactive)
COc1cc(Cc2nccc3cc(OC)c(OC)cc23)c(S(=O)(=O)O)cc1OC	> 38 µM (inactive)
CC1=NN(c2ccccc2)C(=O)/C1=C\c1ccc(Oc2ccc([N+](=O)[O-])cc2[N+](=O)[O-])cc1	3.48 µM
COc1cc(C(=O)CSc2nnc(-c3ccc(O)cc3)n2CC2CCCO2)ccc1NC(C)=O (stereo not drawn)	> 38 µM (inactive)
O=[N+]([O-])c1ccc(N2CCCC(C(F)(F)F)C2)c2ccncc12 (stereo not drawn)	> 38 µM (inactive)
CC(=O)N(CCC(Cc1ccccc1)c1ccc2c(c1)OCO2)Cc1ccccc1F (stereo not drawn)	3.99 µM
O=C(CCl)Nc1cc(S(=O)(=O)N2CCCCCC2)ccc1Cl	4.92 µM
O=C1N=NC2=C1c1c3ccccc3c(O)n1CC2	3.03 µM
O=[N+]([O-])c1ccc(S(=O)(=O)c2cccc(C(F)(F)F)c2)nc1	> 38 µM (inactive)
CCOC(=O)C1(CCOc2ccccc2)CCN(Cc2ccc(O)c(Cl)c2)CC1	> 38 µM (inactive)
Cc1cc2nc3ccc(=[N+](C)C)cc-3sc2cc1N	13.1 µM
CCc1cccc(NC(=O)CSCc2cc(=O)[nH][nH]2)c1	27.7 µM

SMILES	AC50
CNCc1ccccc1Sc1ccc(O)c(O)c1	> 38 µM (inactive)
Cc1[nH]n(C(C)(C)C)c(=O)c1Sc1ccccc1	> 38 µM (inactive)
CC1=NNC(=O)C1Cc1ccccc1 (stereo not drawn)	> 38 µM (inactive)
CCCC(=O)OCCNc1cc(Sc2nccn2C)c2nonc2c1[N+](=O)[O-]	> 38 µM (inactive)
COc1ccc(-c2cc(C#N)nc(Cl)n2)cc1	> 38 µM (inactive)
Nc1ccc(N2CCCCC2)c2nonc12	15.9 µM
Cc1cc(Br)c2c(c1)/C(=C/C(=O)c1cccs1)C(=O)N2	> 38 µM (inactive)
Cc1[nH][nH]c(=O)c1C(c1cc2c(cc1Br)OCO2)c1c(C)[nH][nH]c1=O	20.2 µM
Cc1cc(Sc2nnc(/N=C/N(C)C)s2)c2ccccc2n1	> 38 µM (inactive)
CCOC(=O)C1CCC2(CC1)C(C#N)=C(N)Oc1n[nH]c(C)c12 (stereo not drawn)	> 38 µM (inactive)
O=S(=O)(CCSc1ccccn1)c1nc2ccccc2s1	> 38 µM (inactive)
Cc1ccc2c(c1)c1nnc(SCC(=O)Nc3ccc(N(C)C)cc3)nc1n2CC(=O)O	> 38 µM (inactive)
CCCc1[nH]nc2c1C(c1ccc(OC)cc1OC)C(C#N)=C(N)O2 (stereo not drawn)	32.3 µM
CCOC(=O)c1ccc(NC2=CC(=O)C(=O)c3ccccc32)cc1	> 38 µM (inactive)
Cc1nnc(N/N=C/c2ccccc2O)n1N	21.8 µM
O=C(CSc1nc2ccccc2nc1SCC(=O)N1CCOCC1)N1CCOCC1	> 38 µM (inactive)
CCOc1cc(/C=N\NC(=O)OC(C)(C)C)ccc1OC(=O)c1ccco1	> 38 µM (inactive)
Cc1ccc(Sc2c(C)[nH]n(C(C)(C)C)c2=O)cc1	> 38 µM (inactive)
Cc1sc(NC(=O)CCl)c(C(=O)c2ccccc2)c1C	5.28 µM
Cc1ccccc1Nc1cc2ccccc2c(=O)[nH]1	1.54 µM
COc1cccc(/C=C2\SC(=S)N(CCCC(=O)N(CCO)c3ccccc3)C2=O)c1	> 38 µM (inactive)
CC(C)(C)c1cc(C(c2cccnc2)N2CCN(CCO)CC2)cc(C(C)(C)C)c1O (stereo not drawn)	17.7 µM

SMILES	AC50
Cc1ccc(C(=O)N/N=C/c2ccc(-c3ccccc3[N+](=O)[O-])o2)cn1	9.17 µM
O=C(NC1CCCCC1)C(c1cccnc1)N(C(=O)CCl)c1cccc(Cl)c1 (stereo not drawn)	3 µM
O=C1C(Cl)=C(N2CCOCC2)C(=O)N1c1ccc(Br)cc1	> 38 µM (inactive)
Cc1cc(=O)n(-c2ccc(C(=O)O)cc2)[nH]1	1.92 µM
O=c1[nH]cc(O)c(=O)[nH]1	7.38 µM
Cc1noc(C)c1COC(=O)Cc1ccc(Br)cc1	> 38 µM (inactive)
CC(c1ccc(O)cc1)(c1ccc(O)cc1)c1ccc(CCBr)cc1	11.8 µM
O=C(CCl)N(c1ccccc1)c1c[nH]c2ccccc12	1.46 µM
COc1ccc(C(N)c2nccc3cc(OC)c(OC)cc23)cc1OC (stereo not drawn)	> 38 µM (inactive)
Cc1ccc(S(=O)(=O)Nc2c(O)ccc3ccccc23)cc1	8.05 µM
Cc1ccc(C(=O)n2cnc3ccccc32)cc1C	> 38 µM (inactive)
CC1CCCC(NC(=O)NC(=O)CCl)C1C (stereo not drawn)	29.3 µM
Cc1[nH][nH]c(=O)c1C(c1ccccc1[N+](=O)[O-])C(C#N)C#N (stereo not drawn)	> 38 µM (inactive)
CCC(C)[C@@H](NC(=O)OC(C)(C)C)c1nnc(S(=O)(=O)Cc2cccc(C)c2)o1 (stereo partly drawn)	> 38 µM (inactive)
CC(=O)N(c1ccccc1)C(C)c1nc(C#N)c(C#N)nc1C (stereo not drawn)	> 38 µM (inactive)
CCOc1cc(C2C(C#N)=C(N)Oc3n[nH]c(-c4ccccc4)c32)ccc1O (stereo not drawn)	20.6 µM
CCOc1cc(CNc2ccc3cn[nH]c3c2)ccc1OC	12.7 µM
Cc1ccc(SCc2[nH]nc3c2C2(CCSCC2)C(C#N)=C(N)O3)cc1	30.4 µM
Cc1cc2nc(Sc3c([N+](=O)[O-])nc(C)n3Cc3ccccc3)[nH]c2cc1C	> 38 µM (inactive)
CNC(=O)c1nnsc1S(=O)c1ccc(Cl)cc1 (stereo not drawn)	> 38 µM (inactive)
CC(=O)n1cc(N(C(=O)CCl)c2ccc(Cl)cc2)c2ccccc21	2.08 µM
COc1ccc(C2NC(=O)NC3=C2CCc2ccccc23)cc1 (stereo not drawn)	> 38 µM (inactive)

SMILES	AC50
COc1cccc(C(=O)Nc2nc(SCc3ccc(Cl)cc3)n[nH]2)c1	> 38 µM (inactive)
O=[N+]([O-])c1cc(-c2ccc(C(=S)N3CCOCC3)o2)ccc1Cl	18.4 µM
CCCc1[nH]nc2c1C(CCC)C(C#N)=C(N)O2 (stereo not drawn)	> 38 µM (inactive)
COc1ccccc1-c1cn[nH]c(=S)n1	> 38 µM (inactive)
O=C1C(Cl)=C(N2CCC(C(=O)O)CC2)C(=O)c2ccccc21	1.41 µM
Cc1[nH]n(-c2ccccc2)c(=O)c1C(C[N+](=O)[O-])c1ccc(Cl)cc1 (stereo not drawn)	8.62 µM
CC(CCc1ccccc1)NC(=O)COC(=O)c1cc(NS(=O)(=O)c2ccc(Cl)c([N+](=O)[O-])c2)ccc1O (stereo not drawn)	18.8 µM
Cc1sc(NC(=O)CSC2=NCCS2)nc1-c1ccccc1	26.1 µM
Cc1c(OCC(=O)Nc2cccnc2)ccc2c3c(c(=O)oc12)CCC3	> 38 µM (inactive)
CCOc1ccccc1Oc1coc2cc(OC(=O)c3ccco3)ccc2c1=O	> 38 µM (inactive)
O=C1C(=O)c2ccccc2-c2ccccc21	16.8 µM
N=C1/C(=C\c2ccc(OC(=O)c3ccc(F)cc3)cc2)C(=O)N=C2SC(N3CCOCC3)=NN12	> 38 µM (inactive)
O=C(CCl)N(CCc1ccccc1)CCc1ccccc1	3.25 µM
Cc1cc(=O)n(CCCc2ccccc2)[nH]1	36.5 µM
Nc1nn2c(-c3ccccc3)cc(=O)[nH]c2c1N=Nc1ccc(O)cc1	> 38 µM (inactive)
CCOc1ccc(C(c2c(C)[nH][nH]c2=O)c2c(C)[nH][nH]c2=O)cc1OCC	9.1 µM
CC1=NN(c2ccc(Cl)c(C(=O)O)c2)C(=O)C1	3.21 µM
COc1cc(C(c2c(C)[nH][nH]c2=O)c2c(C)[nH][nH]c2=O)cc(Br)c1OC	13.9 µM
O=C(Nc1ccc(Cl)cc1)/C(=C/c1cccc(O)c1)c1nc2ccccc2s1	3.1 µM
N#Cc1nccnc1S(=O)(=O)c1cccs1	> 38 µM (inactive)
